Source: ChEMBL document CHEMBL1140856, “Substituted 1,2,3,4-tetrahydroquinolin-6-yloxypropanes as beta3-adrenergic receptor agonists: design, synthesis, biological evaluation and pharmacophore modeling” (Bioorg Med Chem, 2009)
pEC50, pIC50: −log10 of the molar value.

Columns and labels:
[1] = target: T1, Beta-3 adrenergic receptor (Homo sapiens, UniProt P13945); experiment: Displacement of [125I]iodocyanopindolol from human adrenergic beta-3 receptor at 1 uM
Target sequence in this assay (P13945 whole entry, looked up): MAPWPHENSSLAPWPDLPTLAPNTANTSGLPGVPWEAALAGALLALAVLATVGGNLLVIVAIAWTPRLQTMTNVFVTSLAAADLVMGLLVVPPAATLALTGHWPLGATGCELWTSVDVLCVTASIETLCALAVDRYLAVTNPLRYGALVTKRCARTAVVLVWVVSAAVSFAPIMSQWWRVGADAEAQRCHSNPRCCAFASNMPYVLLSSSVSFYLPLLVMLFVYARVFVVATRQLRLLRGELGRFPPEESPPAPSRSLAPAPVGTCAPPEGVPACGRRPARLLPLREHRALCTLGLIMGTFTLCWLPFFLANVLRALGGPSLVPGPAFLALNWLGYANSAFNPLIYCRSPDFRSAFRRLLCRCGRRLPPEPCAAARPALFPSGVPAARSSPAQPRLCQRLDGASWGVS

[2] = target: T1, Beta-3 adrenergic receptor; experiment: Displacement of [125I]iodocyanopindolol from human adrenergic beta-3 receptor at 10 uM
Target sequence in this assay (P13945 whole entry, looked up): as above

[3] = Selectivity ratio of EC50 for adrenergic beta-2 receptor to EC50 for human adrenergic beta3 receptor
[4] = target: T1, Beta-3 adrenergic receptor; experiment: Agonist activity at adrenergic beta-3 receptor in human SK-N-MC cells; format: functional, cell-based
Target sequence in this assay (P13945 whole entry): as the sequence (P13945 whole entry, looked up) above

[5] = target: Beta-2 adrenergic receptor (Homo sapiens, UniProt P07550); experiment: Agonist activity at adrenergic beta-2 receptor; format: functional
Chain of Beta-2 adrenergic receptor (P07550 whole entry): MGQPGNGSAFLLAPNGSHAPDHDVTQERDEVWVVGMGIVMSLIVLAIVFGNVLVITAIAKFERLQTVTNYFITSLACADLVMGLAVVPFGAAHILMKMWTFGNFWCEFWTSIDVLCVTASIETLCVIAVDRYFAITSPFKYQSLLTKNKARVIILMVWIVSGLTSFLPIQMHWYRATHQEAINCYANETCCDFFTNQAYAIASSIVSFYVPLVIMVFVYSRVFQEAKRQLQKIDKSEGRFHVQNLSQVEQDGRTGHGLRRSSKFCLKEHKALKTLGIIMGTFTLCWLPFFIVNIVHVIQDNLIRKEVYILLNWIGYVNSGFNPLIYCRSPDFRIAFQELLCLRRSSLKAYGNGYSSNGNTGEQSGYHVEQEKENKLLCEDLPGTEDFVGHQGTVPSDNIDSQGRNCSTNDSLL

[6] = target: T1, Beta-3 adrenergic receptor; experiment: Displacement of [125I]iodocyanopindolol from human adrenergic beta-3 receptor
Target sequence in this assay (P13945 whole entry): as the sequence (P13945 whole entry, looked up) above

[7] = target: Beta-1 adrenergic receptor (Homo sapiens, UniProt P08588); experiment: Agonist activity at adrenergic beta-1 receptor; format: functional
Chain of Beta-1 adrenergic receptor (P08588 whole entry): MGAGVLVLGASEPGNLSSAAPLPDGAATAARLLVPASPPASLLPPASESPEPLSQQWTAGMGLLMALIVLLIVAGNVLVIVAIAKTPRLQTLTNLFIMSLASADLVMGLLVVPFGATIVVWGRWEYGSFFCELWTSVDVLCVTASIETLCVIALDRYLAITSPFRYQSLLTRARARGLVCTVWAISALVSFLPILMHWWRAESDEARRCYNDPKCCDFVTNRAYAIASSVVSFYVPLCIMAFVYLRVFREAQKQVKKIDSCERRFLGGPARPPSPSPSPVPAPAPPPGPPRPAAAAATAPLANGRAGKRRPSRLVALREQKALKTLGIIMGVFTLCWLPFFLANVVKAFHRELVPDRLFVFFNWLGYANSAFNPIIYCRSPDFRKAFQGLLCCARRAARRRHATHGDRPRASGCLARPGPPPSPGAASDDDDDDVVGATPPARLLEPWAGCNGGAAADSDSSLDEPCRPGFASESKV

[8] = Selectivity ratio of EC50 for adrenergic beta-1 receptor to EC50 for human adrenergic beta-3 receptor

Structure (SMILES) | inhibition [1] [%] | inhibition [2] [%] | further results
O=[N+]([O-])c1ccc(N2CCN(CC(O)COc3ccc4c(c3)CCCN4Cc3ccccc3)CC2)cc1 (stereo not drawn) | 6.08 | 4.13 | 
COc1ccc(CCNCC(O)COc2ccc3c(c2)CCCN3Cc2ccccc2)cc1 (stereo not drawn) | 56.2 | 76.5 | Ratio EC50 [3]: 1.2; pEC50 [4]: 5.31; pEC50 [5]: 5.23; pIC50 [6]: 5.93; pEC50 [7]: 5.14; Ratio EC50 [8]: 1.47
CCCNCC(O)COc1ccc2c(c1)CCCN2Cc1ccccc1 (stereo not drawn) | 19.2 | 66.3 | 
CCCNCCCOc1ccc2c(c1)CCCN2Cc1ccccc1 | 5.62 | 16.2 | 
COc1ccc(CCN(CC(O)COc2ccc3c(c2)CCCN3)C(=O)OC(C)(C)C)cc1OC (stereo not drawn) | 23.2 | 28.1 | 
CC(NCC(O)COc1ccc2c(c1)CCCN2Cc1ccccc1)c1ccccc1 (stereo not drawn) | 7.71 | 27.5 | 
Cc1ccc(N2CCN(CC(O)COc3ccc4c(c3)CCCN4Cc3ccccc3)C(C)C2)cc1 (stereo not drawn) | 3.19 | 11.8 | 
CCCCN(CCCC)CC(O)COc1ccc2c(c1)CCCN2Cc1ccccc1 (stereo not drawn) | 4.09 | 14.7 | 
OC(COc1ccc2c(c1)CCCN2Cc1ccccc1)CN1CCN(c2ccccn2)CC1 (stereo not drawn) | 5.32 | 12.7 | 
CC(C)NCC(O)COc1ccc2c(c1)CCCN2Cc1ccccc1 (stereo not drawn) | 59.7 | 83.2 | Ratio EC50 [3]: 1.31; pEC50 [4]: 6.05; pEC50 [5]: 5.94; pIC50 [6]: 6.23; pEC50 [7]: 5.69; Ratio EC50 [8]: 2.3
COc1ccc(CCN(CC(O)COc2ccc3c(c2)CCCN3Cc2ccccc2)C(=O)OC(C)(C)C)cc1OC (stereo not drawn) | 37.8 | 46.7 | 
COc1ccc(N2CCN(CC(O)COc3ccc4c(c3)CCCN4Cc3ccccc3)CC2)cc1 (stereo not drawn) | 45.1 | 49.8 | 
OC(COc1ccc2c(c1)CCCN2Cc1ccccc1)CN1CCN(c2cccc(Cl)c2)CC1 (stereo not drawn) | -2.34 | 11.3 | 
COc1ccc(CCNCC(O)COc2ccc3c(c2)CCCN3)cc1OC (stereo not drawn) | 33.1 | 56.5 | 
CC(Cc1ccc(O)cc1)N1CCOC(c2ccccc2)C1 (stereo not drawn) | 0.34 | 0.24 | 
COc1ccc(CCNCC(O)COc2ccc3c(c2)CCCN3S(=O)(=O)c2ccccc2)cc1OC (stereo not drawn) | 26.5 | 38.9 | 
COc1ccccc1N1CCN(CC(O)COc2ccc3c(c2)CCCN3Cc2ccccc2)CC1 (stereo not drawn) | 12.2 | 14.5 | 
CC1CCN(CC(O)COc2ccc3c(c2)CCCN3Cc2ccccc2)CC1 (stereo not drawn) | -1.79 | 12.8 | 
COc1ccc(CCNCC(O)COc2ccc3c(c2)CCCN3Cc2ccccc2)cc1OC (stereo not drawn) | 72.8 | 90.6 | pIC50 [6]: 6.26

Continued, in another order:

inhibition [1] [%] | inhibition [2] [%] | Structure (SMILES) | further results
4.27 | 31.4 | OC(COc1ccc2c(c1)CCCN2Cc1ccccc1)CN1CCCCC1 (stereo not drawn) | 
3.61 | 0.08 | CC1CN(c2ccc(Cl)cc2)CCN1CC(O)COc1ccc2c(c1)CCCN2Cc1ccccc1 (stereo not drawn) | 
9.18 | 11.2 | CCN(CC)CC(O)COc1ccc2c(c1)CCCN2Cc1ccccc1 (stereo not drawn) | 
5.5 | 20.4 | OC(COc1ccc2c(c1)CCCN2Cc1ccccc1)CN1CCN(c2ccccc2F)CC1 (stereo not drawn) | 
-4.54 | 2.54 | CN(Cc1ccccc1)CC(O)COc1ccc2c(c1)CCCN2Cc1ccccc1 (stereo not drawn) | 
-9.63 | 9.42 | CC(Cc1ccc(OCC(=O)O)cc1)N1CCOC(c2ccccc2)C1 (stereo not drawn) | 
9.26 | 27.4 | COc1ccc(CNCC(O)COc2ccc3c(c2)CCCN3Cc2ccccc2)cc1 (stereo not drawn) | 
49.7 | 68.8 | OC(COc1ccc2c(c1)CCCN2Cc1ccccc1)CN1CCN(c2ccc(F)cc2)CC1 (stereo not drawn) | pIC50 [6]: 5.75
55.8 | 63.1 | OC(CNCCc1ccc(Cl)cc1)COc1ccc2c(c1)CCCN2Cc1ccccc1 (stereo not drawn) | 
42.9 | 58.7 | Clc1ccc(CCNCCCOc2ccc3c(c2)CCCN3Cc2ccccc2)cc1 | 
-7.18 | 0.28 | OC(COc1ccc2c(c1)CCCN2Cc1ccccc1)CN1CCN(c2ccc(Cl)c(Cl)c2)CC1 (stereo not drawn) | 
46.4 | 50.5 | OC(COc1ccc2c(c1)CCCN2Cc1ccccc1)CN1CCC(O)(c2ccccc2)CC1 (stereo not drawn) | 
-5.28 | 18.1 | OC(COc1ccc2c(c1)CCCN2Cc1ccccc1)CN1CCN(Cc2ccc3c(c2)OCO3)CC1 (stereo not drawn) | 
-2.05 | 23.5 | OC(COc1ccc2c(c1)CCCN2Cc1ccccc1)CN1CCC(Cc2ccccc2)CC1 (stereo not drawn) | 
-0.84 | 17.1 | OC(COc1ccc2c(c1)CCCN2Cc1ccccc1)CN1CCN(Cc2ccccc2)CC1 (stereo not drawn) | 
8.17 | 18.1 | Cc1ccc(CCNCC(O)COc2ccc3c(c2)CCCN3Cc2ccccc2)cc1 (stereo not drawn) | 
45.9 | 52.2 | OC(COc1ccc2c(c1)CCCN2Cc1ccccc1)CN1CCN(c2ccccc2)CC1 (stereo not drawn) | 
6.72 | 1.95 | COc1ccc(N2CCN(CCCOc3ccc4c(c3)CCCN4Cc3ccccc3)CC2)cc1 | 
 | -1.36 | CCOC(=O)COc1ccc(CC(C)N2CCOC(c3ccccc3)C2)cc1 (stereo not drawn) | 
1.81 | 19 | OC(CNCc1ccccc1)COc1ccc2c(c1)CCCN2Cc1ccccc1 (stereo not drawn) | 
-3.71 | 0.18 | CN1CCN(CC(O)COc2ccc3c(c2)CCCN3Cc2ccccc2)CC1 (stereo not drawn) | 
